system: Adult houseflies; assay: Knock-down test on adult houseflies, oil solution sprayed into a cubic chamber; type: in vivo; details: 0.7 ml of 0.025% oil solution sprayed in 70 cm cubic chamber; 5 male and 5 female adult houseflies; counted for 10 minutes; average of two repeats
Excerpt: A solution of 0.025 part of Present Compound 1 to 6 dissolved with 10 parts of dichloromethane was mixed with […] parts of deodorized kerosene to give a 0.025% oil solution.
Adult houseflies (5 males and 5 females) were left in a cubic chamber (70 cm at side). Seven-tenths (0.7) ml of the 0.025% oil solution of Present Compound 1 to 6 prepared above was sprayed with a spray gun at a pressure of 8.8×10^4 Pa from a small window on the side of the chamber. Then, the number of the knocked-down insects was counted at times for 10 minutes. The time for knocking down half of the tested insects (KT50) was calculated from the result.
Furthermore, the test was similarly done by using (4-methoxymethyl-2,3,5,6-tetrafluoro)phenylmethyl [1R[1α, 3β(Z)]]-2,2-dimethyl-3-(2-fluoro-3-methoxy-3-oxopropenyl)cyclopropanecarboxylate (hereinafter, referred to as Comparative Compound):
[drawing 12] described in GB patent publication 2,268,740 as a comparative compound. The tests were done twice repeat, and the KT50 values were calculated from the averages.

SMILES | KT50 (time for knocking down half of the tested insects)
COCc1c(F)c(F)c(COC(=O)C2C(/C=C(\F)C(=O)OC)C2(C)C)c(F)c1F (stereo not drawn) [Comparative Compound, (4-methoxymethyl-2,3,5,6-tetrafluoro)phenylmethyl [1R[1α, 3β(Z)]]-2,2-dimethyl-3-(2-fluoro-3-methoxy-3-oxopropenyl)cyclopropanecarboxylate, reference compound] | >10 min
CCOC(=O)/C(C#N)=C/C1C(C(=O)OCc2c(F)c(F)c(COC)c(F)c2F)C1(C)C (stereo not shown) [Present Compound 1, 4-methoxymethyl-2,3,5,6-tetrafluorobenzyl 2,2-dimethyl-3-((E)-2-cyano-3-ethoxy-3-oxo-1-propenyl) cyclopropanecarboxylate] | 1.5 min
COCc1c(F)c(F)c(COC(=O)C2C(/C=C(\C#N)C(=O)OC)C2(C)C)c(F)c1F (stereo not shown) [Present Compound 2, 4-methoxymethyl-2,3,5,6-tetrafluorobenzyl 2,2-dimethyl-3-((E)-2-cyano-3-methoxy-3-oxo-1-propenyl) cyclopropanecarboxylate] | 1.9 min
CCCOC(=O)/C(C#N)=C/C1C(C(=O)OCc2c(F)c(F)c(COC)c(F)c2F)C1(C)C (stereo not shown) [Present Compound 3, 4-methoxymethyl-2,3,5,6-tetrafluorobenzyl 2,2-dimethyl-3-((E)-2-cyano-3-propoxy-3-oxo-1-propenyl) cyclopropanecarboxylate] | 4.1 min
C=CCOC(=O)/C(C#N)=C/C1C(C(=O)OCc2c(F)c(F)c(COC)c(F)c2F)C1(C)C (stereo not shown) [Present Compound 4, 4-methoxymethyl-2,3,5,6-tetrafluorobenzyl 2,2-dimethyl-3-((E)-2-cyano-3-allyloxy-3-oxo-1-propenyl) cyclopropanecarboxylate] | 4.3 min
COCc1c(F)c(F)c(COC(=O)C2C(/C=C(\C#N)C(=O)OC(C)C)C2(C)C)c(F)c1F (stereo not shown) [Present Compound 5, 4-methoxymethyl-2,3,5,6-tetrafluorobenzyl 2,2-dimethyl-3-((E)-2-cyano-3-isopropoxy-3-oxo-1-propenyl) cyclopropanecarboxylate] | 1.5 min
COCc1c(F)c(F)c(COC(=O)C2C(/C=C(\C#N)C(=O)OC(C)(C)C)C2(C)C)c(F)c1F (stereo not shown) [Present Compound 6, 4-methoxymethyl-2,3,5,6-tetrafluorobenzyl 2,2-dimethyl-3-((E)-2-cyano-3-t-butyloxy-3-oxo-1-propenyl) cyclopropanecarboxylate] | 3.4 min

From patent US7217682B2, “Cyclopropanecarboxylic acid esters and pest controllers containing the same” (Sumitomo Chemical Company, Limited, priority 2001, dated 2007)
